Experimental data reported in ChEMBL document CHEMBL3797183, “Rigid amphipathic nucleosides suppress reproduction of the tick-borne encephalitis virus” (Medchemcomm, 2016).

Key:
[1] = tested on: Tick-borne encephalitis virus; assay: Antiviral activity against Tick-borne encephalitis virus Absettarov infected in PEK cells assessed as reduction in viral plaque formation incubated for 1 hr measured after 6 days by gentian violet staining; type: functional, cell-based
[2] = Cytotoxicity against PEK cells after 24 hrs; type: cell-based, Sus scrofa; conditions: pig
[3] = Cytotoxicity against PEK cells after 7 days; type: cell-based, Sus scrofa; conditions: pig
[4] = tested on: Tick-borne encephalitis virus; assay: Antiviral activity against Tick-borne encephalitis virus Absettarov infected in PEK cells assessed as reduction in viral plaque formation compounds preincubated with virus for 1 hr followed by addition of cells with subsequent incubation of 1 hr measured after 6 days by gentian violet staining; type: functional, cell-based
[5] = tested on: Tick-borne encephalitis virus; assay: Antiviral activity against Tick-borne encephalitis virus Absettarov infected in PEK cells assessed as reduction in viral plaque formation compounds preincubated with cells for 1 hr followed by addition of virus with subsequent incubation of 1 hr by gentian violet staining; type: functional, cell-based
Human alphaherpesvirus 1 = assay: Antiviral activity against HSV1 KOS infected in African green monkey Vero cells treated for 10 mins measured after 1 to 2 days by crystal violet staining-based assay; type: functional, organism-based; conditions: Human alphaherpesvirus 1, KOS
Sindbis virus = assay: Antiviral activity against Sindbis virus infected in African green monkey Vero cells treated for 10 mins measured after 1 to 2 days by crystal violet staining-based assay; type: functional, organism-based
[6] = Antiviral activity against Influenza virus A/USSR/90/77 (H1N1) infected in MDCK cells treated for 10 mins measured after 1 hr by neutral red or crystal violet staining-based assay; type: functional, cell-based, Influenza A virus (A/USSR/90/1977(H1N1))
Human alphaherpesvirus 2 = assay: Antiviral activity against HSV2 186 infected in African green monkey Vero cells treated for 10 mins measured after 1 to 2 days by crystal violet staining-based assay; type: functional, cell-based; conditions: Human alphaherpesvirus 2, strain 186, Vero
Hepatitis C virus = assay: Antiviral activity against HCV JFH-1 infected in human Huh7.5 cells treated for 10 mins measured after 72 hrs by immunocytochemical assay; type: functional, organism-based, Hepacivirus hominis; conditions: JFH-1, Huh-7
Influenza A virus [7] = assay: Antiviral activity against Influenza virus A/PR/8/34 (H1N1) infected in MDCK cells treated for 10 mins measured after 1 hr by neutral red or crystal violet staining-based assay; type: functional, organism-based; conditions: A/Puerto Rico/8/1934(H1N1)
Influenza A virus [8] = assay: Antiviral activity against Influenza virus A/PC/1/73 (H3N2) infected in MDCK cells treated for 10 mins measured after 1 hr by neutral red or crystal violet staining-based assay; type: functional, organism-based
[9] = tested on: Vesicular stomatitis virus; assay: Antiviral activity against VSV infected in African green monkey Vero cells treated for 10 mins measured after 1 to 2 days by crystal violet staining-based assay; type: functional, organism-based
[10] = Antiviral activity against Influenza virus A/Aichi/2/68 (H3N2) infected in MDCK cells treated for 10 mins measured after 1 hr by neutral red or crystal violet staining-based assay; type: functional, cell-based, Influenza A virus (A/Aichi/2/1968(H3N2))
[11] = tested on: Tick-borne encephalitis virus; assay: Antiviral activity against 2.2x10^3 PFU Tick-borne encephalitis virus Absettarov infected in PEK cells assessed as inhibition of viral titer at 200 EC50 for simultaneous addition of compound/cells/virus incubated for 1 hr measured after 6 days by gentian violet staining; type: functional
[12] = tested on: Tick-borne encephalitis virus; assay: Antiviral activity against 2.2x10^2 PFU Tick-borne encephalitis virus Absettarov infected in PEK cells assessed as inhibition of viral titer at 200 EC50 for simultaneous addition of compound/cells/virus incubated for 1 hr measured after 6 days by gentian violet staining; type: functional
[13] = tested on: Tick-borne encephalitis virus; assay: Antiviral activity against 2 PFU Tick-borne encephalitis virus Absettarov infected in PEK cells assessed as inhibition of viral titer at 200 EC50 for simultaneous addition of compound/cells/virus incubated for 1 hr measured after 6 days by gentian violet staining; type: functional
[14] = tested on: Tick-borne encephalitis virus; assay: Antiviral activity against 2.2x10^5 PFU Tick-borne encephalitis virus Absettarov infected in PEK cells assessed as inhibition of viral titer at 200 EC50 for simultaneous addition of compound/cells/virus incubated for 1 hr measured after 6 days by gentian violet staining; type: functional
[15] = Cytotoxicity against PEK cells assessed as cytopathic effect at 50 uM after 7 days relative to control; type: cell-based, Sus scrofa; conditions: pig, 168 h
[16] = tested on: Tick-borne encephalitis virus; assay: Antiviral activity against 22 PFU Tick-borne encephalitis virus Absettarov infected in PEK cells assessed as inhibition of viral titer at 200 EC50 for simultaneous addition of compound/cells/virus incubated for 1 hr measured after 6 days by gentian violet staining; type: functional
[17] = tested on: Tick-borne encephalitis virus; assay: Antiviral activity against 2.2x10^4 PFU Tick-borne encephalitis virus Absettarov infected in PEK cells assessed as inhibition of viral titer at 200 EC50 for simultaneous addition of compound/cells/virus incubated for 1 hr measured after 6 days by gentian violet staining; type: functional

Row | Structure (SMILES) | EC50 [1] [nM] | CC50 at 24 h [2] [nM] | CC50 at 168 h [3] [nM] | EC50 [4] [nM] | EC50 [5] [nM] | IC50 (Human alphaherpesvirus 1) [nM] | IC50 (Sindbis virus) [nM] | IC50 [6] [nM] | IC50 (Human alphaherpesvirus 2) [nM] | IC50 (Hepatitis C virus) [nM] | IC50 (Influenza A virus [7]) [nM] | IC50 (Influenza A virus [8]) [nM] | IC50 [9] [nM] | IC50 [10] [nM] | inhibition (INH) [11] [%] | inhibition (INH) [12] [%] | inhibition (INH) [13] [%] | inhibition (INH) [14] [%] | Activity [15] [%] | inhibition (INH) [16] [%] | other results
1 | O=c1[nH]c(=O)n([C@H]2C[C@H](O)[C@@H](CO)O2)cc1C#Cc1ccc2ccc3cccc4ccc1c2c34 | 980 | > 50000 | > 50000 | 600 | 42000 | – | – | – | – | – | – | – | – | – | – | – | – | – | – | – | –
2 | O=c1[nH]c(=O)n([C@@H]2O[C@H](CO)[C@@H](O)[C@@H]2O)cc1C#Cc1ccc2c3cccc4cccc(c5cccc1c52)c43 | 18 | > 50000 | 4400 | 40 | 2700 | 2 | 2 | 2 | 2 | 2 | 2 | 2 | 2 | 2 | – | – | – | – | – | – | –
3 | O=c1[nH]c(=O)n([C@H]2C[C@H](O)[C@@H](CO)O2)cc1C#CCOCc1ccc2c3cccc4cccc(c5cccc1c52)c43 | 500 | > 50000 | > 50000 | – | > 50000 | – | – | – | – | – | – | – | – | – | 100 | 100 | 100 | 99.9965 | 25 | 100 | inhibition (INH) [17]: 99.9988%
4 | O=c1[nH]c(=O)n([C@H]2C[C@H](O)[C@@H](CO)O2)cc1C#Cc1ccc2c3cccc4cccc(c5cccc1c52)c43 | 24 | > 50000 | > 50000 | 40 | 1560 | 2 | 2 | 2 | 2 | 2 | 2 | 2 | 2 | 2 | 100 | 100 | 100 | 99.9995 | 25 | 100 | inhibition (INH) [17]: 99.9988%
